The source of these data is article PMC9673787, “1,2,3-Benzoxathiazine-2,2-dioxides – effective inhibitors of human carbonic anhydrases” (Journal of Enzyme Inhibition and Medicinal Chemistry, 2022).

One series concerns the target T1, hCA IX (Homo sapiens, UniProt Q16790).
T1 construct: made in house
The series is described as follows: stopped flow CO2 hydrase assay, hCA IX. The class given is biochemical. The following applies: recombinant enzyme, 15 min incubation, mean from three assays, errors ± 5–10%. On the procedure:
(§1) An applied photophysics stopped-flow instrument has been used for assaying the CA catalysed CO2 hydration activity.[32]
(§2) Phenol red (at a concentration of 0.2 mM) was used as indicator, working at the absorbance maximum of 557 nm, with 20 mM Hepes (pH 7.5), and 20 mM Na2SO4 (for maintaining constant the ionic strength), following the initial rates of the CA-catalysed CO2 hydration reaction for a period of 10 − 100 s. The CO2 concentrations ranged from 1.7 to 17 mM for the determination of the kinetic parameters and inhibition constants. […] The uncatalysed rates were determined in the same manner and subtracted from the total observed rates. Stock solutions of inhibitor (0.1 mM) were prepared in distilled – deionised water, and dilutions up to 0.01 nM were done thereafter with the assay buffer. Inhibitor and enzyme solutions were preincubated together for 15 min at room temperature prior to assay in order to allow for the formation of the E – I complex. […] The inhibition constants were obtained by nonlinear least-squares methods using PRISM 3 and the Cheng – Prusoff equation, as reported earlier[15]^,[33–37]^, and represent the mean from at least three different determinations. All CA isoforms were recombinant ones obtained in-house as reported earlier[12]^,[18]^,[38–45].

In another series the target is T2, hCA XII (Homo sapiens, UniProt O43570).
T2 construct: made in house
The series is described as follows: stopped flow CO2 hydrase assay, hCA XII. The class given is biochemical. The following applies: 15 min incubation; for Ki: recombinant enzyme, mean from three assays, errors ± 5–10%. As for the experimental part: as §1, §2

A further series deals with T3, hCA I (Homo sapiens, UniProt P00915).
T3 construct: made in house
The series is described as follows: stopped flow CO2 hydrase assay, hCA I. The class given is biochemical. The following applies: 15 min incubation; for Ki: recombinant enzyme, mean from three assays, errors ± 5–10%. On the procedure: as §1, §2

For the next series, the target named is T4, hCA II (Homo sapiens, UniProt P00918).
T4 construct: made in house
The series is described as follows: stopped flow CO2 hydrase assay, hCA II. The class given is biochemical. The following applies: 15 min incubation. As for the experimental part:
as §1, §2

The mark [1] stands for this setting: recombinant enzyme, mean from three assays, errors ± 5–10%, read-out: KI (nM) hCA II.

Where two headings read alike, the source gives them in different places. Where only a bound is given, the exact number is not on record here.

T2 sequence (O43570 25-354): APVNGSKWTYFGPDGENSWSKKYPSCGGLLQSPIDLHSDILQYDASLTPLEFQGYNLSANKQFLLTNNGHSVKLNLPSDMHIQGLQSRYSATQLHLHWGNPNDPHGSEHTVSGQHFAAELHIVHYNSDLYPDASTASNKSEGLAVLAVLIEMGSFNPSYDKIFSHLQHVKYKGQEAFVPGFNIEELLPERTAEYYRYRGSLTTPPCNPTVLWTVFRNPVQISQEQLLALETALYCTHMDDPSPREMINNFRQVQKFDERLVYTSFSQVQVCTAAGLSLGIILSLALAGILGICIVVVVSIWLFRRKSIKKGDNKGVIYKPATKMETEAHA
T3 sequence (P00915 whole entry): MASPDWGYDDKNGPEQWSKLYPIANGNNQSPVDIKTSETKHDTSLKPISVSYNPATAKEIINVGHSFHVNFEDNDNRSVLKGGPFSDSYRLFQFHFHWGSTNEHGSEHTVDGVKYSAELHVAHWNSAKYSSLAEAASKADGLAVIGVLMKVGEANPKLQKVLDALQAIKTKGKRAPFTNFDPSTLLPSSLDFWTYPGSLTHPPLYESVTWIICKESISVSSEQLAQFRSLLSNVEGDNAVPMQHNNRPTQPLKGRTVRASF

Consider `Cc1ccc2c(c1)C=NS(=O)(=O)O2` [2a, 6-Methyl-1,2,3-benzoxathiazine 2,2-dioxide], for which the Ki on hCA IX worked out at 72 nM; at hCA XII, 98.2 nM; on hCA I it was 25700 nM; at hCA II (setting [1]) it was 116 nM.

On to `COc1ccc2c(c1)C=NS(=O)(=O)O2` [2b, 6-Methoxy-1,2,3-benzoxathiazine 2,2-dioxide], for which the Ki at hCA IX was 62.8 nM; at hCA XII, 75.1 nM; at hCA I it was greater than 100000 nM; on hCA II (setting [1]) it was 168 nM. The “inhibition of hCA I in words” value at hCA I is “did not inhibit”.

As for `O=S1(=O)N=Cc2cc(F)ccc2O1` [2c, 6-Fluoro-1,2,3-benzoxathiazine 2,2-dioxide], the Ki stood at 58.3 nM at hCA IX, 121 nM at hCA XII, 3320 nM on hCA I and 71.8 nM at hCA II (setting [1]).

`O=S1(=O)N=Cc2cc(Br)ccc2O1` [2d, 6-Bromo-1,2,3-benzoxathiazine 2,2-dioxide]: the Ki on hCA IX was 27.4 nM; on hCA XII, 186 nM; at hCA I, greater than 100000 nM; on hCA II (rounded, read-out: Ki hCA II) it was 8300 nM; at hCA II (setting [1]) it was 8320 nM. Besides, at hCA I, the “inhibition of hCA I in words” value is recorded as “did not inhibit”.

`Cc1ccc2c(c1)OS(=O)(=O)N=C2` [2e, 7-Methyl-1,2,3-benzoxathiazine 2,2-dioxide]: the Ki at hCA IX was 53.1 nM; on hCA XII, 58 nM; at hCA I, 657 nM; on hCA II (setting [1]), 78.9 nM.

With `COc1ccc2c(c1)OS(=O)(=O)N=C2` [2f, 7-Methoxy-1,2,3-benzoxathiazine 2,2-dioxide], the Ki at hCA IX worked out at 39.7 nM; on hCA XII, 83.1 nM; on hCA I, 987 nM; at hCA II (setting [1]), 55.2 nM.

For `O=S1(=O)N=Cc2ccc(F)cc2O1` [2g, 7-Fluoro-1,2,3-benzoxathiazine 2,2-dioxide], the Ki at hCA IX stood at 55.4 nM; at hCA XII it was 112 nM; on hCA I it was 448 nM; on hCA II (setting [1]), 86.7 nM.

`O=S1(=O)N=Cc2ccc(Br)cc2O1` [2h, 7-Bromo-1,2,3-benzoxathiazine 2,2-dioxide]: the Ki was found to be 22.3 nM on hCA IX, 70.1 nM at hCA XII, 46500 nM on hCA I and 45.1 nM on hCA II (setting [1]).

As to `COc1cccc2c1OS(=O)(=O)N=C2` [2i, 8-Methoxy-1,2,3-benzoxathiazine 2,2-dioxide], the Ki amounted to 73.6 nM on hCA IX, 63.4 nM on hCA XII, 1520 nM on hCA I and 39 nM at hCA II (setting [1]).

As for `O=S1(=O)N=Cc2cccc(F)c2O1` [2j, 8-Fluoro-1,2,3-benzoxathiazine 2,2-dioxide], the Ki on hCA IX was 65.9 nM; on hCA XII, 34.7 nM; at hCA I it was 466 nM; at hCA II (setting [1]), 89.2 nM.

With `O=S1(=O)N=Cc2cccc(Br)c2O1` [2k, 8-Bromo-1,2,3-benzoxathiazine 2,2-dioxide], the Ki came out at 41.8 nM on hCA IX, 86.3 nM on hCA XII, 788 nM on hCA I and 113 nM on hCA II (setting [1]).

`O=S1(=O)N=Cc2c(cccc2-c2ccccc2)O1` [5a, 5-Phenyl-1,2,3-benzoxathiazine 2,2-dioxide] displayed a melting point of 156 to 157 °C. Besides, the inhibition constant Ki at hCA IX is 5250 nM. The Ki on hCA XII is 12600 nM. For the same compound, at hCA I, the inhibition constant (Ki) is greater than 100000 nM. The Ki on hCA II (setting [1]) was 9870 nM.

Turning to `O=S1(=O)N=Cc2c(cccc2-c2ccc(F)cc2)O1` [5b, 5-(4-Fluorophenyl)-1,2,3-benzoxathiazine 2,2-dioxide], the Ki on hCA IX is 4140 nM; at hCA XII, 7460 nM; on hCA I, greater than 100000 nM; at hCA II (setting [1]) it was 14800 nM.

In turn, `COc1ccc(-c2cccc3c2C=NS(=O)(=O)O3)cc1` [5c, 5–(4-Methoxyphenyl)-1,2,3-benzoxathiazine 2,2-dioxide] registered a melting point of 177 to 178 °C. Moreover, on hCA IX, the Ki stood at 10900 nM. For the same compound, the Ki on hCA XII came out at 18000 nM. For the same compound, the Ki on hCA I is greater than 100000 nM. For the same compound, the Ki on hCA II (setting [1]) came to 36900 nM.

Take `O=S1(=O)N=Cc2c(cccc2-c2ccc(Cl)c(Cl)c2)O1` [5d, 5-(3,4-Dichlorophenyl)-1,2,3-benzoxathiazine 2,2-dioxide]: the melting point was 230 to 231 °C. In addition, at hCA IX, the Ki is greater than 100000 nM. Moreover, the Ki on hCA XII came out at 45300 nM. Besides, at hCA I, the Ki is greater than 100000 nM. Besides, at hCA II, the “inhibition of hCA II in words” value is on record as “not inhibited”. Besides, the Ki on hCA II (setting [1]) is greater than 100000 nM.

As to `CCOC(=O)c1ccc(-c2cccc3c2C=NS(=O)(=O)O3)cc1` [5e, Ethyl 4-(2,2-dioxido-1,2,3-benzoxathiazin-5-yl)benzoate], the Ki at hCA IX, at hCA XII, at hCA I and at hCA II (setting [1]) was greater than 100000 nM in each case. For the same compound, the “inhibition of hCA XII in words” value against hCA XII was “did not exhibit any inhibitory properties”. Besides, at hCA II, the “inhibition of hCA II in words” value was “not inhibited”.

Take `O=S1(=O)N=Cc2ccc(-c3ccccc3)cc2O1` [5f, 7-Phenyl-1,2,3-benzoxathiazine 2,2-dioxide]: the melting point was 171 to 172 °C. For the same compound, on hCA IX, the Ki is 28.6 nM. The Ki at hCA XII came to 78.3 nM. Moreover, the Ki at hCA I amounted to 5680 nM. In addition, the inhibitory constant (Ki) at hCA II (setting [1]) amounted to 7.7 nM.

With `O=S1(=O)N=Cc2ccc(-c3ccc(F)cc3)cc2O1` [5g, 7-(4-Fluorophenyl)-1,2,3-benzoxathiazine 2,2-dioxide], the melting point lay within 164 to 165 °C. For the same compound, the Ki at hCA IX stood at 69.8 nM. Besides, the Ki at hCA XII is 8.2 nM. On hCA I, the Ki is 15200 nM. For the same compound, at hCA II (setting [1]), the Ki amounted to 2.1 nM.

`COc1ccc(-c2ccc3c(c2)OS(=O)(=O)N=C3)cc1` [5h, 7-(4-Methoxyphenyl)-1,2,3-benzoxathiazine 2,2-dioxide] registered a melting point of 181 to 182 °C. The Ki at hCA IX turned out to be 45.2 nM. Also, the Ki on hCA XII stood at 36.4 nM. For the same compound, at hCA I, the Ki is 30300 nM. In addition, at hCA II (setting [1]), the Ki amounted to 14.3 nM.

`CCOC(=O)c1ccc(-c2ccc3c(c2)OS(=O)(=O)N=C3)cc1` [5i, Ethyl 4-(2,2-dioxido-1,2,3-benzoxathiazin-7-yl)benzoate] displayed a melting point of 204 to 205 °C. Further, at hCA IX, the Ki worked out at 38 nM. Moreover, the Ki at hCA XII turned out to be 90.5 nM. Also, the Ki on hCA I came out at 356 nM. The Ki on hCA II (setting [1]) turned out to be 0.8 nM.

`O=S1(=O)N=Cc2cccc(-c3ccccc3)c2O1` [5j, 8-Phenyl-1,2,3-benzoxathiazine 2,2-dioxide] yielded a melting point of 164 to 165 °C. The Ki at hCA IX is 49.1 nM. At hCA XII, the Ki was 61.8 nM. The Ki on hCA I was 668 nM. Also, on hCA II (setting [1]), the Ki was 0.5 nM.

Compound `O=S1(=O)N=Cc2cccc(-c3ccc(F)cc3)c2O1` [5k, 8-(4-Fluorophenyl)-1,2,3-benzoxathiazine 2,2-dioxide] gave a melting point of 123 to 124 °C. On hCA IX, the Ki was 32.3 nM. The Ki on hCA XII amounted to 12.4 nM. For the same compound, on hCA I, the Ki came out at 1850 nM. The Ki on hCA II (setting [1]) was 5.6 nM.

On to `COc1ccc(-c2cccc3c2OS(=O)(=O)N=C3)cc1` [5l, 8-(4-Methoxyphenyl)-1,2,3-benzoxathiazine 2,2-dioxide], for which the melting point was in the range of 133 to 134 °C. In addition, the Ki at hCA IX came out at 62.7 nM. In addition, the Ki on hCA XII amounted to 7.3 nM. For the same compound, the Ki on hCA I turned out to be 4260 nM. Further, the Ki at hCA II (setting [1]) worked out at 12.3 nM.

Regarding `O=S1(=O)N=Cc2cccc(-c3ccc(Cl)c(Cl)c3)c2O1` [5m, 8-(3,4-Dichlorophenyl)-1,2,3-benzoxathiazine 2,2-dioxide], the melting point is 165 to 166 °C. Further, the Ki on hCA IX amounted to 40.8 nM. Moreover, at hCA XII, the Ki was 4.8 nM. Besides, the Ki on hCA I stood at 6710 nM. The Ki on hCA II (setting [1]) amounted to 9.5 nM.

Broadly, the Ki is the equilibrium dissociation constant of an inhibitor or competing ligand from its target. The melting point is the temperature of the solid-liquid transition.
